Experimental data published in PMC10987619, “Identification and structural characterization of small molecule inhibitors of PINK1” (Scientific Reports, 2024).
One block for each compound: values may come before it.

What was measured:
TcPINK1 [1] = target: T1, TcPINK1 (Tribolium castaneum, UniProt D6WMX4); assay: Kinase Glo luminescence assay (ATP hydrolysis) IC50 determination; type: biochemical; conditions: 1 µM unphosphorylated TcPINK1, 10 µM ATP, 5 min, 30 °C
T1 construct: TcPINK1 (121–570) ampicillin-resistant plasmids were co-expressed in BL21 DE3 E. coli with lambda phosphatase; GST (N, cleaved yes); made in house; host or cells: E. coli BL21 DE3
Description: The Kinase Glo Max (cat #V6071) kit assay was used to measure the ATP consumed in the kinase assays. Unphosphorylated 1 µM TcPINK1 was incubated with 10 µM ATP for 5 min at 30 °C in kinase buffer ([…]). […] The kinase buffer consists of 50 mM Tris–HCl pH 7.5, 300 mM NaCl, 1 mM DTT. 100 µL of kinase at 1 µM was added to 100 µL kinase buffer with inhibitor and left in a 30 °C incubator. After the 5-min mark, 200 µL kinase glo was added to stop the reaction. 100 µL of the sample was then pipetted into 3 wells of an opaque white 96-well plate. The luminescence was measured using the Orion II Microplate Luminometer and obtained using the Simplicity 4.2 program. […] The ATP concentration remaining in the reaction was calculated from the linear equation of the ATP standard curve. This number was then divided by the amount of ATP initially present and multiplied by 100 to obtain the percent inhibition. The values were normalized according to the baseline (no inhibitor). The points plotted on a non-linear regression graph in GraphPad Prism 7. The IC50 value and standard deviation were determined in GraphPad.

TcPINK1 [2] = target: T2, TcPINK1 (Tribolium castaneum, UniProt D6WMX4); assay: In vitro ubiquitin kinase assay with tetraubiquitin (Ub4), pUb immunoblot; type: biochemical; conditions: 100 µM compound; for Inhibition of Ub4 phosphorylation (kinase activity of TcPINK1): 100 µM ATP, 5 min, 30 °C
T2 construct: GST (N, cleaved yes); made in house; host or cells: E. coli
T2 sequence (D6WMX4 121-570 limits assumed): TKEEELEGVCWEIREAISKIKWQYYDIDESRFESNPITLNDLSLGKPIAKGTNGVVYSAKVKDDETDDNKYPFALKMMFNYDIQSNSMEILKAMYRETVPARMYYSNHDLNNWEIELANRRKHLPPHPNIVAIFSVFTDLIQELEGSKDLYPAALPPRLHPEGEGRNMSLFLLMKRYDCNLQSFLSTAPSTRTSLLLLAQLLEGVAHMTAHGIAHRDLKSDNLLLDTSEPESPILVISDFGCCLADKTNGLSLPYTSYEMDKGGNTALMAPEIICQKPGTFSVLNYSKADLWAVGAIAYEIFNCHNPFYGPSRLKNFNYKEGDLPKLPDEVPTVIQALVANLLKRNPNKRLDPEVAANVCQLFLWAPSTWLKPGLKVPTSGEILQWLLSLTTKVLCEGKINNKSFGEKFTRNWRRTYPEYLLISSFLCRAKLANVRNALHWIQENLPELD
Description: Inhibitors were purchased from different sources via Cedarlane Laboratories (catalog # in parenthesis). […] Olaparib was sent by mistake by Adooq Bioscience under cat #P505-15 and identified by LC–MS/MS (MS^1: m/z 435.183; MS^2: m/z 367.157, 281.072). MTK458 was donated by Mitokinin. The racemic PRT-core was custom synthesised by ChemSpace (CSCS02808122161). Kinase activity assays were performed by mixing 5 nM of purified TcPINK1 with 100 µM ATP, 100 µM small molecules from 10 mM stock in DMSO, 200 µM MgCl2 in kinase buffer (final 1% DMSO). The reactions were left in a 30 °C incubator for 5 min for TcPINK1. The reactions were stopped with the addition of Laemmli buffer (2% SDS, 0.1% bromophenol blue (SigmaAldrich), 10% glycerol, 100 mM DTT) final concentration 1X. The entire reaction was loaded onto a 12.5% Tris-Tricine gel (1 M Tris–HCl pH 8.45, 12.5% acrylamide, 0.1% SDS, 0.1% APS, 0.04% TEMED). Protein from a 12.5% polyacrylamide gel were transferred onto an immuno-blot polyvinylidene fluoride (PVDF) membrane (Bio-rad). The membranes were stained with 1% Ponceau and imaged using the ImageQuant LAS 500. The membrane was washed with distilled water and then blocked in 5% BSA diluted in tris buffered saline with 0.1% Tween (TBS-T) for 1 h. The membrane was briefly rinsed and left to incubate with primary antibody anti-pS65-Ub (E2J6T; rabbit mAb, CST, 62802) at a 1:10,000 dilution in TBS-T for 2 h. The membrane was further rinsed three times for 10 min with TBS-T before incubating it with a 1:2000 dilution of secondary antibody, anti-rabbit horseradish peroxidase (HRP)-conjugated antibodies (CST, 7074), in TBS-T. The membrane was rinsed three times for 10 min in TBS followed by the addition of 1 mL ECL solution (BioRad) to the membrane and visualized on the ImageQuant LAS 500. Densitometry was performed using the Fiji software.

[3] = target: FMS-like tyrosine kinase 3 (FLTK3); conditions: read-out: Inhibition of FLTK3; cited from earlier work
[4] = target: T3, TcPINK1 121-570 (TcPINK1-4arom) (Tribolium castaneum, UniProt D6WMX4, F401A/W131A/W142A/Y225A); assay: Isothermal titration calorimetry; type: binding; conditions: AMP-PNP (syringe) into TcPINK1 (cell), 20 °C, one-site model
T3 construct: GST (N, cleaved yes); made in house; host or cells: E. coli BL21 DE3
Description: The isothermal titration calorimetry (ITC) assay was performed using the Microcal ITC 200-1 instrument. […] Experiment involved 29 injections of AMP-PNP at 1.5 mM into a sample cell containing 350 μL of 100 µM TcPINK1-4arom at 20 °C. Data was fitted to a one-site model and background was subtracted using the Origin v7 software.

human PINK1 (HsPINK1) = target: T4, human PINK1 (HsPINK1) (Homo sapiens, UniProt Q9BXM7); assay: In organello Ub4 kinase assay with mitochondria isolated from CCCP-treated HeLa cells; type: biochemical; conditions: 100 µM compound, 0.1 mM ATP, 15 min, 30 °C
T4 construct: host or cells: HeLa (mitochondria isolated after CCCP)
Description: Wild type (WT) HeLa cells (ATCC #CCL-2) were cultured in DMEM medium supplemented with 10% fetal bovine serum (FBS) at 37 °C and 5% CO2 in a humidified atmosphere. Cells were then treated with 20 µM CCCP for 3 h to induce the accumulation of PINK1. Cells were then washed twice in ice-cold mitochondrial isolation buffer (MIB: 20 mM HEPES, 70 mM sucrose, 220 mM mannitol, pH 7.4, 1 mM EDTA, Complete protease inhibitors), resuspended in MIB and lysed using nitrogen cavitation for 5 min at 500 psi. Cell debris were removed by centrifugation at 500 g for 5 min, and mitochondria were pelleted by centrifugation at 20,000g for 20 min. 7.5 µg of mitochondria was incubated with 3.75 µg Ub4, 5 mM MgCl2, 0.1 mM ATP and 100 µM of each inhibitor for 15 min at 30 °C. The reaction was quenched with Laemlli buffer and loaded on a gel for immunoblotting as described above. The following antibodies were used: anti-pS65-Ub (E2J6T; rabbit mAb, CST, 62802), anti-PINK1 (D8G3; rabbit IgG mAb; CST, 6946), anti-cytochrome C (136F3, recombinant rabbit mAb, CST, 4280), and HRP-conjugated secondary anti-rabbit (CST, 7074).

FGR = conditions: cited from earlier work
[5] = target: T5, human PINK1 (PINK1-3HA) in HeLa S3 cells (Homo sapiens, UniProt Q9BXM7); assay: HeLa S3 cells IC50 determination (pUb immunoblot after CCCP); type: cell-based; conditions: HeLa S3 PINK1-3HA, CCCP 4 h
T5 construct: expressed in transfected cells; host or cells: HeLa S3

TcPINK1 [6] = target: T6, TcPINK1 (Tribolium castaneum, UniProt D6WMX4); assay: Autophosphorylation (transphosphorylation) assay by intact LC-MS; type: biochemical; conditions: 100 µM compound, 5 µM TcPINK1, 1 mM ATP, 30 °C
T6 sequence (D6WMX4 128-570 limits assumed): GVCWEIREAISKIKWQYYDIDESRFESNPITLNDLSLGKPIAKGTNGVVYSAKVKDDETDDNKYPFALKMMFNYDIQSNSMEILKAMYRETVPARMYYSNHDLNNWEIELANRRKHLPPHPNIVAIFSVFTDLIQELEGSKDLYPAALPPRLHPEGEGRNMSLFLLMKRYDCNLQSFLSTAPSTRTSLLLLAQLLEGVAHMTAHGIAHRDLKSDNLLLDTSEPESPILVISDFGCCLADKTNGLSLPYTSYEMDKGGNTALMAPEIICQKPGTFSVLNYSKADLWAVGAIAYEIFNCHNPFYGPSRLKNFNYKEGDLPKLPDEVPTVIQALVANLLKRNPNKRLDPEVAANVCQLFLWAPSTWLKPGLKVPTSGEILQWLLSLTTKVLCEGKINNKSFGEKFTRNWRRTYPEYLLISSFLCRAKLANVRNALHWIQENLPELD
Description: Intact protein mass spectrometry was used to monitor transphosphorylation of TcPINK1-D337N by ^15N-TcPINK1-WT, as described previously. ^15N-TcPINK1 at 5 μM was combined with 5 μM TcPINK1-D337N, 100 μM compound of interest, 1 mM ATP, 2 mM MgSO4 in 300 mM NaCl, 50 mM Tris–HCl pH 8, 2 mM DTT with 2% DMSO at 30 °C for transphosphorylation reactions with timepoints of 0 s, 30 s, 60 s, and 120 s. Timepoint reactions were stopped by addition of 0.05% TFA and 2% acetonitrile (final concentrations). Reactions in 20 μL were injected on a Dionex C4 Acclaim 1.0/15 mm column followed by a 10 min 4–50% gradient of ACN in 0.1% formic acid with a flow rate of 40 μL/min. The eluate was analyzed on a Bruker Impact II Q-TOF mass spectrometer equipped with an Apollo II ion funnel ESI source. The multiply charged ions were deconvoluted at 10,000 resolution using the maximum entropy method. The signal intensity of the nonphosphorylated and phosphorylated TcPINK1-D337N peaks were estimated using the DataAnalysis software integration tool and used to calculate the fraction phosphorylated.

[7] = target: T7, endogenous PINK1 in dopaminergic (DA) neurons (Homo sapiens, UniProt Q9BXM7); assay: Assay with dopaminergic neurons (CCCP, immunoblot); type: cell-based; conditions: 48 h compound then 20 µM CCCP 2 h
T7 construct: host or cells: ReN VM cells differentiated to dopamine neurons

MLK1 = conditions: cited from earlier work
GST-TcPINK1 = target: T8, GST-TcPINK1 (Tribolium castaneum, UniProt D6WMX4); assay: In vitro ubiquitin kinase assay with monoubiquitin, Phos-tag gel; type: biochemical; conditions: 5 µM GST-TcPINK1, 30 µM ubiquitin, 1 mM ATP, 37 °C
T8 construct: made in house; host or cells: E. coli
Description: (a) Thermal shift assay screen of kinase inhibitors against Tribolium castaneum PINK1 (TcPINK1) with melting temperature increase of 1.5 °C and above. Error bars indicate standard error of ΔTm estimation from melting curves (n = 1). (b) In vitro ubiquitin kinase assays with TcPINK1 and tetraubiquitin (Ub4). Reactions were analyzed by immunoblotting against phospho-ubiquitin (pUb). […] The ponceau staining of the above gel is shown as loading control. (c) In vitro ubiquitin kinase assays with 5 μM GST-TcPINK1 and 30 μM ubiquitin, as well as 1 mM ATP at 37 °C (n = 1). Reactions were analyzed using a phos-tag gel and stained by Coomassie blue. (d) Chemical structures of identified PINK1 inhibitors.

T7 sequence (Q9BXM7 78-581): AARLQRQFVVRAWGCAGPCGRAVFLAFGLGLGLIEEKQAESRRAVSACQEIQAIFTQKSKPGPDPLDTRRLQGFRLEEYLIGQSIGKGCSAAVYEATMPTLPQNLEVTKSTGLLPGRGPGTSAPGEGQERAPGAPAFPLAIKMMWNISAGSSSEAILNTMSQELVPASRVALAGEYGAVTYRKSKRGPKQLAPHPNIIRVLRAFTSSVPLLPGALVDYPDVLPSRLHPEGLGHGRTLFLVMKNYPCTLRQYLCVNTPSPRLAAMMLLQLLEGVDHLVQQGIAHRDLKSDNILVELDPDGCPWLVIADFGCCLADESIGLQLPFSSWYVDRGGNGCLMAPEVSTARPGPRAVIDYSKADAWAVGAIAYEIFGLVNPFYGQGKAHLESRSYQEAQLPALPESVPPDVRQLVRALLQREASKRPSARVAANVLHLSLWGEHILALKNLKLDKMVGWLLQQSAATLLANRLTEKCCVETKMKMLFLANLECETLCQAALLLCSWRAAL
T4 sequence (Q9BXM7 78-581): as above
T8 sequence (D6WMX4 with tags, fused parts or gaps limits assumed): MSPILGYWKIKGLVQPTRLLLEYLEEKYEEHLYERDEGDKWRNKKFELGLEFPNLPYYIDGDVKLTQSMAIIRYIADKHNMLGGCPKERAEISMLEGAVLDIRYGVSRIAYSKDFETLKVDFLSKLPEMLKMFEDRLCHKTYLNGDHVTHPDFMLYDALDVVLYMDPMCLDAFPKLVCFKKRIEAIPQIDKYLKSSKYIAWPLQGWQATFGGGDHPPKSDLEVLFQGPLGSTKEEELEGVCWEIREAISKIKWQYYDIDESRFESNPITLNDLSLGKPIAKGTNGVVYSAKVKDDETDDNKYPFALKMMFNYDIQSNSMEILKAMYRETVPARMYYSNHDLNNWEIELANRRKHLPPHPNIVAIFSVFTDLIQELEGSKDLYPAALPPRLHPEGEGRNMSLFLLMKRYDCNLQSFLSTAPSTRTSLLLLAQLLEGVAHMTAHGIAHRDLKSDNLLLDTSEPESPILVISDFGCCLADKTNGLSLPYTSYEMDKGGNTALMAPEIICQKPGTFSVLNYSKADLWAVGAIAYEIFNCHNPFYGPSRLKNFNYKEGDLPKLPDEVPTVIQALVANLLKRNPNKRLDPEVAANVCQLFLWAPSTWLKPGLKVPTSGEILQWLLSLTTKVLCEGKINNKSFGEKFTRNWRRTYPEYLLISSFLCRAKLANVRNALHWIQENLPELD
T5 sequence (Q9BXM7 78-581): as the sequence (Q9BXM7 78-581) above
T3 sequence (D6WMX4 121-570 W131A/W142A/Y225A/F401A): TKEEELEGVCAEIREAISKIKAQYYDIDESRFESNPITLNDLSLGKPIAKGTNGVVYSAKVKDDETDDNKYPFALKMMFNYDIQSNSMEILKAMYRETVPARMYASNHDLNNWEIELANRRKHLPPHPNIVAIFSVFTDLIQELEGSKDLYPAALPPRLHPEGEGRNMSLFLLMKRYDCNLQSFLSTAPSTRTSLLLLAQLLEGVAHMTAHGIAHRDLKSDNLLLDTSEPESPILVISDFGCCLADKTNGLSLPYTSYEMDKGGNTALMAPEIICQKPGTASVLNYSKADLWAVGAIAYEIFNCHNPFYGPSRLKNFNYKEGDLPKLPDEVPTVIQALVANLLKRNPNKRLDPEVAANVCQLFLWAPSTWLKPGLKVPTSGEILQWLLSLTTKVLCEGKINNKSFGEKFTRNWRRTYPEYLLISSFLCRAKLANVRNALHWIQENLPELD

- IC50 (TcPINK1 [1]): 27.6 ± 1.1 µM
Compound: Nc1nc(Nc2ccc(S(N)(=O)=O)cc2)nn1C(=O)c1c(F)cccc1F [JNJ-7706621]

- IC50 (TcPINK1 [1]): 65.4 ± 1.1 µM
Compound: Cc1nc(N)sc1-c1ccnc(Nc2ccc(N3CCOCC3)cc2)n1 [CYC116]

Compound: Cn1cc(-c2nc(N[C@@H]3CCCC[C@@H]3N)c(F)c3c2C(=O)NC3)cn1 [TAK-659]
- Inhibition of Ub4 phosphorylation (kinase activity of TcPINK1) (TcPINK1 [2]): inhibit the kinase activity of TcPINK1
- IC50 (TcPINK1 [1]): 6.4 ± 1 µM
- IC50 [3]: 0.005 µM

Compound: Nc1ncnc2c1ncn2[C@@H]1O[C@H](COP(=O)(O)OP(=O)(O)NP(=O)(O)O)[C@@H](O)[C@H]1O [AMP-PNP]
- Kd [4]: 96 µM

Compound: FC(F)(F)c1cc2c(N[C@@H]3CCCc4ccccc43)ncnc2[nH]1 [MTK458]
- Inhibition of human PINK1 Ub4 phosphorylation in organello (human PINK1 (HsPINK1)): does not significantly affect Ub4 phosphorylation

Compound: NC(=O)c1cnc(N[C@@H]2CCCC[C@@H]2N)nc1Nc1cccc(-n2nccn2)c1 [PRT062607]
- IC50 (FGR): 0.081 µM
- PINK1 levels (HA blot) [5]: not substantially affected
- Inhibition of human PINK1 Ub4 phosphorylation in organello (human PINK1 (HsPINK1)): most potent inhibitors of human PINK1 kinase activity
- Inhibition of Ub4 phosphorylation (kinase activity of TcPINK1) (TcPINK1 [2]): inhibits Ub4 phosphorylation most strongly
- TcPINK1 autophosphorylation (TcPINK1 [6]): inhibits TcPINK1 autophosphorylation
- Mfn2 ubiquitination [7]: inhibition of Mfn2 ubiquitination
- Potential-dependent cleavage of Opa1 to its short isoform [7]: not affected
- pUb signal [7]: reduction of the pUb signal in a dose-dependent manner
- Inhibition of monoubiquitin phosphorylation (GST-TcPINK1): inhibits TcPINK1

Compound: NC(=O)c1cnc(N[C@@H]2CCCC[C@@H]2N)nc1Nc1ccccc1 (racemic) [PRT-core]
- Inhibition of Ub4 phosphorylation (kinase activity of TcPINK1) (TcPINK1 [2]): inhibit the kinase activity of TcPINK1

Compound: CNCc1ccc(-c2cc(-c3nc(-c4ccc(S(=O)(=O)C(C)C)cc4)cnc3N)on2)cc1 [VE822]
- Inhibition of human PINK1 Ub4 phosphorylation in organello (human PINK1 (HsPINK1)): does not significantly impact HsPINK1
- TcPINK1 activity compared to control (TcPINK1 [2]; Ub4 substrate): 8%

Compound: Cc1cccc(Nc2nc(N[C@@H]3CCCC[C@@H]3N)ncc2C(N)=O)c1 [PRT060318]
- Inhibition of human PINK1 Ub4 phosphorylation in organello (human PINK1 (HsPINK1)): most potent inhibitors of human PINK1 kinase activity
- Inhibition of Ub4 phosphorylation (kinase activity of TcPINK1) (TcPINK1 [2]): inhibit the kinase activity of TcPINK1
- IC50 (TcPINK1 [1]): 2.5 µM
